Measured values as given in patent publication US8741946B2, “Inhibitors of flaviviridae viruses” (priority 2011, dated 2014).
Like-named read-outs stand apart in the source and are kept apart here.

Assays:
[1] = system: NS5B mutant M423T (amino acids 1-570; GT-1b); assay: Surface Plasmon Resonance binding affinity to M423T NS5B; set-up: species or system HCV GT-1b; details: M423T KD versus wild-type KD
Description: (§1) Compounds with minimal fold difference in binding affinity may have particular clinical utility.
(§2) In vitro studies with NS5B employed soluble, 21 residue C-terminal truncated forms of the NS5b protein (amino acids 1-570; GT-1b; wild-type and mutant M423T. See Hung, M., Wang, R., Liu, X.: ‘Preparation of HCV NS3 and NS5B to support small molecule drug discovery’, Current Protocols in Pharmacology, 2011, in press). Surface Plasmon Resonance (SPR) was used to measure the binding affinity of compounds described herein to the protein constructs. Standard amine coupling was employed to link the protein to the surface of a Biacore CM5 sensor chip using 10 mM sodium acetate pH 5.5 buffer to an immobilization level of ˜2500 RU. Experiments were performed using a Biacore T100 system at 25° C. in running buffer (50 mM Hepes pH 7.5, 5 mM MgCl2, […], 1 mM EDTA, 1 mM TCEP, 0.01% P20, 5% DMSO). Compounds were tested in a 3-fold concentration dilution series for 8 concentrations starting at 162 nM, using an association phase of 60 seconds and dissociation phase of 5 minutes at a flow rate of 100 μl min^−1. At the end of each binding cycle, a 3-second injection of a buffer (10 mM disodium tetraborate, 1M NaCl, pH8.5) at 40 μl min^−1 was used as a regeneration step to remove compounds still bound to the NS5B surface. Response data were processed using the following procedure: injections aligned in X and Y directions, double referenced using both a reference surface and buffer injections, and DMSO correction for excluded volume effects. Processed data were analyzed using non-linear least squares analysis with a global fit of a 1:1 binding model with mass transport.

[2] = target: T1, NS5B mutant M423T (amino acids 1-570; GT-1b) (Hepatitis C virus genotype 1b, UniProt Q9WMX2, M2842T); assay: as above; set-up: species or system HCV GT-1b
T1 construct: 21 residue C-terminal truncated forms of the NS5b protein (amino acids 1-570); GT-1b; made in house
Description: as §1, §2

HCV replicon = HCV replicon assay in Huh-7 cells (luciferase); assay type: cell-based; details: Hepatitis C virus, 72 h; Huh-7 HCV replicon cells, 3 days incubation, luciferase readout; read-out: Wild-type EC50
Description: The anti-HCV activity of the compounds of this invention was tested in a human hepatoma Huh-7 cell line harboring a HCV replicon. The assay comprised the following steps:
Serial dilution was performed in 100% DMSO in a 384-well plate. A solution containing a compound at 225-fold concentration of the starting final serial dilution concentration was prepared in 100% DMSO and 15 μL added to the pre-specified wells in column 3 or 13 of a polypropylene 384-well plate. The rest of the 384-well plate was filled with 10 μL100% DMSO except for columns 23 and 24, where 10 μL of 500 uM a HCV protease inhibitor (ITMN-191) in 100% DMSO was added. The HCV protease inhibitor was used a control of 100% inhibition of HCV replication. The plate was then placed on a Biomek FX Workstation to start the serial dilution. The serial dilution was performed for ten cycles of 3-fold dilution from column 3 to 12 or from column 13 to 22.
To each well of a black polypropylene 384-well plate, 90 μL of cell media containing 1600 suspended Huh-7 HCV replicon cells was added with a Biotek uFlow Workstation. A volume of 0.4 μL of the compound solution was transferred from the serial dilution plate to the cell culture plate on a Biomek FX Workstation. The DMSO concentration in the final assay condition was 0.44%. The plates were incubated for 3 days at 37° C. with 5% CO2 and 85% humidity.
a) Assessment of cytotoxicity: The media in the 384-well cell culture plate was aspirated with a Biotek EL405 plate-washer. A volume of 50 μL of a solution containing 400 nM Calcein AM in 100% PBS was added to each well of the plate with a Biotek uFlow Workstation. The plate was incubated for 30 minutes at room temperature before the fluorescence signal ([…]) was measured with a Perkin Elmer Envision Plate Reader.
b) Assessment of inhibition of viral replication: The calcein-PBS solution in the 384-well cell culture plate was aspirated with a Biotek EL405 plate-washer. A volume of 20 μL of Dual-Glo luciferase buffer (Promega, Dual-Glo Luciferase Assay Reagent, cat. #E298B) was added to each well of the plate with a Biotek uFlow Workstation. The plate was incubated for 10 minutes at room temperature. A volume of 20 μL of a solution containing 1:100 mixture of Dual-Glo Stop & Glo substrate (Promega, Dual-Glo Luciferase Assay Reagent, cat. #E313B) and Dual-Glo Stop & Glo buffer (Promega, Dual-Glo Luciferase Assay Reagent, cat. #E314B) was then added to each well of the plate with a Biotek uFlow Workstation. The plate was incubated at room temperature for 10 minutes before the luminescence signal was measured with a Perkin Elmer Envision Plate Reader.
The percent cytotoxicity was determined by calcein AM conversion to fluorescent product. The average fluorescent signal from the DMSO control wells were defined as 100% nontoxic. The individual fluorescent signal from testing compound treated well was divided by the average signal from DMSO control wells and then multiplied by 100% to get the percent viability. The percent anti-HCV replication activity was determined by the luminescence signal from the testing well compared to DMSO controls wells. The background signal was determined by the average luminescence signal from the HCV protease inhibitor treated wells and was subtracted from the signal from the testing wells as well as the DMSO control wells. Following 3-fold serial dilutions, the EC50 and CC50 values were calculated by fitting % inhibition at each concentration to the following equation: % inhibition=100%/[(EC50/[I])^b+1]
Where b is Hill's coefficient. See, for reference, Hill, A. V., The Possible Effects of the Aggregation of the Molecules of Hemoglobin on its Dissociation Curves, J. Physiol. 40: iv-vii. (1910).
% inhibition values at a specific concentration, for example 2 μM, can also be derived from the formula above.

[3] = target: T2, wild-type NS5B (amino acids 1-570; GT-1b) (Hepatitis C virus genotype 1b, UniProt Q9WMX2); assay: Surface Plasmon Resonance binding affinity to wild-type NS5B; set-up: species or system HCV GT-1b
T2 construct: 21 residue C-terminal truncated forms of the NS5b protein (amino acids 1-570); GT-1b; made in house
Description: as §1, §2

[4] = system: genotype 1b (Con-1 strain) HCV replicon with NS5B M423T mutation; assay: Transient transfection replicon assay, NS5B M423T mutant PI-hRluc replicon in Huh-lunet cells; assay type: cell-based, HCV genotype 1b (Con-1 strain); details: Hepatitis C virus, 72 h, read-out: Replicon transient transfection EC50 M423T
[5] = system: genotype 1b (Con-1 strain) HCV replicon, wild-type; assay: Transient transfection replicon assay, wild-type PI-hRluc replicon in Huh-lunet cells; assay type: cell-based, HCV genotype 1b (Con-1 strain); details: Hepatitis C virus, 72 h, wild-type genotype 1b PI-hRluc replicon, three days
[6] = SPR, Biacore T100, 25° C., wild-type NS5B, read-out: Wild-type KD

Compound | Fold difference [1] | Kd [2] [nM] | EC50 (HCV replicon) [nM] | Kd [3, 6] [nM] | EC50 [4] [nM] | EC50 [5] [nM] | Kd [3] [nM]
CC1=CC[C@H](C(=O)N(c2cc(C#CC(C)(C)C)sc2C(=O)O)C(C)C)[C@H](C)C1 (single isomer, unassigned) [Example 1] | 5.6 | 7.7 | 8 | 1.4 | – | – | –
CC1=CC[C@@H](C(=O)N(c2cc(C#CC(C)(C)C)sc2C(=O)O)C(C)C)[C@H](C)C1 (single isomer, unassigned) [Example 2] | 9.5 | 26.8 | 5 | 2.8 | – | – | –
CC(C)N(c1cc(C#CC(C)(C)C)sc1C(=O)O)C(=O)[C@H]1CC[C@H](C)CC1 [Comparative example 1, 5-(3,3-Dimethylbut-1-ynyl)-3-((1r,4r)-N-isopropyl-4-methylcyclohexanecarboxamido)thiophene-2-carboxylic acid, reference compound] | 16 | 2.78 | 26 | 1.7 | 293 | 26 | –
CC(C)(C)C#Cc1cc(N(C(=O)[C@H]2CC[C@H](C)CC2)[C@H]2CC[C@H](O)CC2)c(C(=O)O)s1 [Comparative example 2, 5-(3,3-Dimethylbut-1-ynyl)-3-((1r,4R)—N-((1r,4R)-4-hydroxycyclohexyl)-4-methylcyclohexanecarboxamido)thiophene-2-carboxylic acid, reference compound] | – | – | 6 | – | 343 | 10 | –
CC(C)N(C(=O)[C@H]1CC[C@H](C)C[C@@H]1C)c1cc(C#CC(C)(C)C)sc1C(=O)O [Comparative example 3, 5-(3,3-Dimethylbut-1-ynyl)-3-((1S,2S,4S)—N-isopropyl-2,4-dimethylcyclohexanecarboxamido)thiophene-2-carboxylic acid, reference compound] | – | – | 50 | – | – | – | –
CC(C)N(C(=O)[C@@H]1CC[C@@H](C)C[C@H]1C)c1cc(C#CC(C)(C)C)sc1C(=O)O [Comparative example 4, 5-(3,3-Dimethylbut-1-ynyl)-3-((1R,2R,4R)—N-isopropyl-2,4-dimethylcyclohexanecarboxamido)thiophene-2-carboxylic acid, reference compound] | 40 | 144 | 8 | 3.6 | – | – | –
CC1=CC[C@H](C(=O)N(c2cc(C#CC(C)(C)C)sc2C(=O)O)C(C)C)[C@@H](C)C1 [Example 3, 5-(3,3-Dimethylbut-1-ynyl)-3-((1S,6S)—N-isopropyl-4,6-dimethylcyclohex-3-enecarboxamido)thiophene-2-carboxylic acid] | – | 4.2 | 5 | 0.7 | 14 | 5 | –
CC1=CC[C@@H](C(=O)N(c2cc(C#CC(C)(C)C)sc2C(=O)O)C(C)C)[C@@H](C)C1 [Example 4, 5-(3,3-dimethylbut-1-ynyl)-3-((1R,6S)—N-isopropyl-4,6-dimethylcyclohex-3-enecarboxamido)thiophene-2-carboxylic acid] | – | 18.5 | 38 | 6.5 | – | – | –
CC1=CC[C@@H](C(=O)N(c2cc(C#CC(C)(C)C)sc2C(=O)O)C(C)C)CC1 [Example 5, (S)-5-(3,3-Dimethylbut-1-ynyl)-3-(N-isopropyl-4-methylcyclohex-3-enecarboxamido)thiophene-2-carboxylic acid] | 9.0 | 13.7 | 10 | – | – | – | 1.5
CC1=CC[C@H](C(=O)N(c2cc(C#CC(C)(C)C)sc2C(=O)O)C(C)C)CC1 [Example 6, (R)-5-(3,3-Dimethylbut-1-ynyl)-3-(N-isopropyl-4-methylcyclohex-3-enecarboxamido)thiophene-2-carboxylic acid] | 11 | 14.3 | 7 | 1.3 | 40 | 8 | –
CC1=CC[C@H](C(=O)N(c2cc(C#CC(C)(C)C)sc2C(=O)O)[C@H]2CC[C@H](O)CC2)[C@@H](C)C1 [Example 7, 5-(3,3-Dimethylbut-1-ynyl)-3-((1S,6S)—N-((1r,4S)-4-hydroxycyclohexyl)-4,6-dimethylcyclohex-3-enecarboxamido)thiophene-2-carboxylic acid] | – | – | < 4.5 | – | – | – | –
CC1=CC[C@H](C(=O)N(c2cc(C#CC(C)(C)C)sc2C(=O)O)[C@H]2CC[C@H](O)CC2)CC1 [Example 8, 5-(3,3-Dimethylbut-1-ynyl)-3-((R)—N-((1r,4R)-4-hydroxycyclohexyl)-4-methylcyclohex-3-enecarboxamido)thiophene-2-carboxylic acid] | – | – | < 2.3 | – | – | – | –
